Experimental data reported in article PMC5640644, “HDX reveals the conformational dynamics of DNA sequence specific VDR co-activator interactions” (Nature Communications, 2017).

Biological target: T1, RXRα (Homo sapiens, UniProt P19793)
T1 construct: Flag; made in house; host or cells: baculovirus system
T1 sequence (P19793 1-462): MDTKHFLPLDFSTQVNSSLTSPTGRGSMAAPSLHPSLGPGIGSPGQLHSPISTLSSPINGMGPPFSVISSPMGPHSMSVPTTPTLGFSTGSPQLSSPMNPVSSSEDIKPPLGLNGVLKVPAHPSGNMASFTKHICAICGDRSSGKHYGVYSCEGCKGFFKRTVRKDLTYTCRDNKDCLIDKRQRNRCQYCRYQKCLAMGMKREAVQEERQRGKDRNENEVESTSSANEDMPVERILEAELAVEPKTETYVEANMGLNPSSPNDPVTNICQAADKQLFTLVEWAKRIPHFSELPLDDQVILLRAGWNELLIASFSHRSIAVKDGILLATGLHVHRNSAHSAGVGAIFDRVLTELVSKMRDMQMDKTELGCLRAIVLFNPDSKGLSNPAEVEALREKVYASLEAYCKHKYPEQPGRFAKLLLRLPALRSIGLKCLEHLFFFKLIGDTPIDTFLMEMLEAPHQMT
Assay: Differential HDX-MS of RXRα alone with and without ligand
Assay type: binding
Details: without VDR
Protocol: Full-length WT His-hVDR (Δ (151–190)) and WT Flag-h RXRα were expressed in a baculovirus system and purified by Ni-NTASEC or Flag-SEC, respectively. His-hSRC1 RID (627–786) variant 1 (NM_003743) was expressed in Escherichia coli (BL21 DE3) and purified using His-Trap (GE Healthcare). The final protein buffer was 50 mM Tris (pH 8.0), 150 mM NaCl, 10% glycerol and 2 mM DTT. The purity of each protein was > 95% and was verified using SDS-PAGE, western blot and MALDI MS.
HDX-MS analysis: 10 μM of the apo protein was mixed with 1:10 molar excess of ligand and incubated for 2 h at 4 °C for complex formation before subjecting them to HDX analysis. […] The intensity weighted mean m/z centroid value of each peptide envelope was calculated and subsequently converted into a percentage of deuterium incorporation. […] In the absence of a fully deuterated control, 100% deuterium incorporation was calculated theoretically, and corrections for back-exchange were made on the basis of an estimated 70% deuterium recovery and accounting for 79.9% final deuterium concentration in the sample (1:5 dilution in D2O HDX buffer). Statistical significance for the differential HDX data is determined by an unpaired t-test for each time point, a procedure that is integrated into the HDX Workbench software. […]

## CCC(CC)(c1ccc(OCC(O)C(C)(C)C)c(C)c1)c1ccc(C(=O)N(C)CC(=O)O)c(C)c1 (stereo not shown) [Cmpd1, [(4-{1-ethyl-1-[4-(2-hydroxy-3,3-dimethyl-butoxy)-3-methyl-phenyl]-propyl}-2-methyl-benzoyl)-methyl-amino]-acetic acid]
  conformational changes of RXRα upon ligand binding (HDX): no detectable conformational changes
